Data on 2 molecules can be found in article PMC10914734 (Signal Transduction and Targeted Therapy, 2024).

Read-outs that look alike come from different tables or passages of the source.

Test [1] has as its system HCoV-OC43. As to the kind of experiment: microbe, parasite or virus in culture. The class given is cell-based. Particulars: Betacoronavirus 1, OC43, RD, read-out: EC50, authentic HCoV-OC43.
The target of test [2] is Human Furin (Homo sapiens, UniProt P09958). As to the kind of experiment: Protease panel, furin inhibition. The class given is biochemical. As to conditions: at a concentration of 20 μM; for inhibition: read-out: Inhibition rate, Human Furin.
Human Furin, sequence (P09958 108-794): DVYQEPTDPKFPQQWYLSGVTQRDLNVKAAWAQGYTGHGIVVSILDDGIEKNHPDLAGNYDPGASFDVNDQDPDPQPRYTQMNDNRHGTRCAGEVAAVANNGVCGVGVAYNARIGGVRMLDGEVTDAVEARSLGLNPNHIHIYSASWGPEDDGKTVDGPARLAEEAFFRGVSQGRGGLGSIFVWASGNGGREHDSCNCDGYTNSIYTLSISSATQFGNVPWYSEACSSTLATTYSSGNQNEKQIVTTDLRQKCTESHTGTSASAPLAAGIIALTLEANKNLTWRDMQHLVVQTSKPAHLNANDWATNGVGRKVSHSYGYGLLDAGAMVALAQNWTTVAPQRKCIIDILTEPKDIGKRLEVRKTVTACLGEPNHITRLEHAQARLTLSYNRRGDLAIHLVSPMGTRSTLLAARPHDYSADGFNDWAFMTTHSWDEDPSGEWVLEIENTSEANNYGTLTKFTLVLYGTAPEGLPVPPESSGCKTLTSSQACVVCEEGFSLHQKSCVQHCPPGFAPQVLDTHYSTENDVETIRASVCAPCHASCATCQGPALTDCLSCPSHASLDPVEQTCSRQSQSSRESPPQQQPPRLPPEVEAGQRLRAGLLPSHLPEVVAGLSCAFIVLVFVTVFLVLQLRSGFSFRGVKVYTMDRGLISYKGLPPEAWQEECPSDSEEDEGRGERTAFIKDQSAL
Test [3] deals with Human CTSE (Homo sapiens, UniProt P14091). The test is described as follows: Protease panel, CTSE inhibition. The test is classed as biochemical. As to conditions: at a concentration of 20 μM; read-out: Inhibition rate, Human CTSE.
Human CTSE, sequence (P14091 54-396): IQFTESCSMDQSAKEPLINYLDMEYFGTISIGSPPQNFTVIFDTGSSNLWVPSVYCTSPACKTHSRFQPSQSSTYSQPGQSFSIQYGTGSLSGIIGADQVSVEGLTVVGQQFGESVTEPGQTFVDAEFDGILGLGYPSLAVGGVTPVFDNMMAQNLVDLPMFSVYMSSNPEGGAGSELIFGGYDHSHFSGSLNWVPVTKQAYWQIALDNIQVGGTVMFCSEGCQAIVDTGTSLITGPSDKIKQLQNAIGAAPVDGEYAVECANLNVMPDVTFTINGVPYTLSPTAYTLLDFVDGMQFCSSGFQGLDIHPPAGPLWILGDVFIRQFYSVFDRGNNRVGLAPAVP
Test [4] deals with Human CTSG (Homo sapiens, UniProt P08311). The test is described as follows: Protease panel, CTSG inhibition. The test is classed as biochemical. Particulars: at a concentration of 20 μM; read-out: Inhibition rate, Human CTSG.
Human CTSG, sequence (P08311 21-255): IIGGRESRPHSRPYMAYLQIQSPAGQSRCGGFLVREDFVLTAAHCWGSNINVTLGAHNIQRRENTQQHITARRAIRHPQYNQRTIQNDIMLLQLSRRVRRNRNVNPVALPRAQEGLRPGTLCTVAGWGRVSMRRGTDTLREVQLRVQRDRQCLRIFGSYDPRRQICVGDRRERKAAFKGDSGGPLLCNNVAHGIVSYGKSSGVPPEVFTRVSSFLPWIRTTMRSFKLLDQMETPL
Test [5] deals with Human CTSX (Homo sapiens, UniProt Q9UBR2). The test is described as follows: biochemical.
Human CTSX, sequence (Q9UBR2 62-303): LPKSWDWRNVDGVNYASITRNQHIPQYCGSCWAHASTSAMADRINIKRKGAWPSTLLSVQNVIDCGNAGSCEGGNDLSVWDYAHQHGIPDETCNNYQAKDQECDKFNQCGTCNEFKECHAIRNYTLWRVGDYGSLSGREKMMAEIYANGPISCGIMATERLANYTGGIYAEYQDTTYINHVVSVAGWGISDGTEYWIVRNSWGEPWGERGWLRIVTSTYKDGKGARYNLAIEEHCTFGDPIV
For test [6], the target named is SARS-CoV-2 PL^pro (Severe acute respiratory syndrome coronavirus 2, UniProt P0DTD1). As to the kind of experiment: biochemical. The class given is biochemical. Particulars: at a concentration of 20 μM; for inhibition at 20 µM: read-out: Inhibition rate, SARS-CoV-2 PL^pro.
Test [7] relates to SARS-CoV-2-S-mediated cell-cell fusion. The test is described as follows: SARS-CoV-2-S-mediated cell-cell fusion assay. The test is classed as cell-based.
In test [8] the test system is SARS-CoV-2 PsV. The test is classed as cell-based. As to conditions: 500 nM.
For test [9], the system named is LPS-induced acute pulmonary inflammation. As to the kind of experiment: Mouse model of LPS-induced acute pulmonary inflammation. The test is classed as in vivo. Particulars: 100 mg/kg intraperitoneal, 24 h after LPS induction; for Expression levels of inflammatory cytokines (IL-1β, IL-6, TNFα) and chemokines (CCL3, CSF3, CXCL10) in the lung tissues: mice. The protocol:
C57BL/6 mice were obtained from Beijing HFK Bioscience Co., Ltd. (Beijing, China). Animals 6–8 weeks of age were used for the studies and were maintained with free access to pellet food and water in plastic cages at 21 ± 2 °C and kept on a 12 h light/dark cycle. Mice were randomly divided into four groups, each group containing eight mice. The mice were intraperitoneally administered with 100 mg/kg of 14a or 100 mg/kg of 14b or vehicle control 1 h prior to LPS challenge. The compounds were dissolved in solvent containing 5% dimethyl sulfoxide, 5% ethanol, 40% polyethylene glycol 400 and 50% saline (volume ratio). The mice were anesthetized by Zoletil 50. Then mice in the normal group were intranasally inoculated with 20 μL normal saline, and mice in the LPS challenge group were intranasally inoculated with 20 μL (5 μg/μL) LPS to induce pneumonia. At 12 h post-induction, the mice were again intraperitoneally administered with 100 mg/kg of 14a or 100 mg/kg of 14b or vehicle control. Twenty-four hours later, mice were euthanized, and the lung tissues were harvested for further study.
RNA isolation, cDNA synthesis, and RT-qPCR. Total RNA was isolated from lung tissues using RNA extraction reagent (Vazyme, R401-01). cDNA was synthesized using the HiScript II Q RT SuperMix (Vazyme, R223-01), according to the manufacturer’s instructions. RT-qPCR was performed using ChamQ SYBR qPCR Master Mix (Vazyme, Q331-02) in the CFX96TM Real Time PCR Detection System (Bio-Rad, Shanghai, China). The profile of thermal cycling consisted of initial denaturation at 95 °C for 30 s, 40 cycles at 95 °C for 5 s and 60 °C for 30 s. All primer sequences used in this study are listed in Supplementary Table S5.
Hematoxylin and eosin (H&E) staining. Lung tissue samples were fixed in 4% paraformaldehyde and embedded in paraffin (Thermo Scientific, 8331). […] was sectioned (5 μm) for H&E staining, and the stained sections were analyzed by a pathologist using a light microscope (Olympus, Tokyo, Japan). Lung injury was evaluated based on histological features, including alveolar septal thickening and inflammatory cell infiltration.

Test [10] has as its target Human CTSL (Homo sapiens, UniProt P07711). The test is described as follows: FRET-based cleavage assay, enzymatic inhibition of human CTSL.
The subject of test [11] is HCoV-OC43. As to the kind of experiment: Protective effect against HCoV-OC43 infection in newborn mice. The test is classed as in vivo. The protocol:
We also further assessed the in vivo antiviral activity of compound 14b against HCoV-OC43 infection in a mouse model. In the HCoV-OC43 infection mouse model, we treated newborn mice with 14b at a dose of 5 mg/kg by intraperitoneal injection 24 h after challenge with HCoV-OC43 at 100 TCID50.
Protective effect of 14b against HCoV-OC43 in vivo was assessed as previously reported.[45] All newborn mice were challenged with HCoV-OC43 (100 TCID50) by intranasal administration. For mice in the 14b-treated group, 14b (5 mg/kg) in a proper solution (1% dimethyl sulfoxide, 9% polyethylene glycol 300, and 90% aqueous solution containing 28% (w/v) hydroxypropyl β-cyclodextrin, volume ratio) was given by intraperitoneal injection. Mice in the viral control group were treated with PBS. Body weight and survival rate of these mice were then observed up to the 15th day post-infection.

Human CTSL, sequence (P07711 114-333): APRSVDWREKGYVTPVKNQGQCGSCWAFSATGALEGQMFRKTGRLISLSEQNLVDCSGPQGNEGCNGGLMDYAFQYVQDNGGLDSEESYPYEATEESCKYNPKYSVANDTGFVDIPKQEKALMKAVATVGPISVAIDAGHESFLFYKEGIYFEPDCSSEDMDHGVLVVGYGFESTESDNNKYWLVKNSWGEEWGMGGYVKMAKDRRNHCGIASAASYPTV

As to `O=C(NCc1ccccc1)C(=O)[C@H](C[C@@H]1CCCNC1=O)NC(=O)[C@H](Cc1ccc(F)cc1)NC(=O)c1cc2ccccc2o1` [14a, N-((S)-1-(((S)-4-(benzylamino)-3,4-dioxo-1-((S)-2-oxopiperidin-3-yl)butan-2-yl)amino)-3-(4-fluorophenyl)-1-oxopropan-2-yl)benzofuran-2-carboxamide], the EC50 in test [1] was determined as 3380 ± 2070 nM. Also, in test [2], the “Inhibitory activity against furin (in words)” value was “did not exhibit inhibitory activity” and the inhibition was 3 ± 4%. In [3], the inhibition turned out to be 13 ± 1%. Moreover, in test [4], the inhibition is 20 ± 3%. Also, the midpoint of inhibition in test [5], the IC50, lay at 722 ± 108 nM. Moreover, in test [6], the “Inhibitory activity against papain-like protease (PL^pro) (in words)” value was “no inhibitory activity” and the inhibition at 20 µM came out at 3 ± 2%. Also, in test [7], the “Effect on SARS-CoV-2-S-mediated cell-cell fusion” value is on record as “no effect”. For the same molecule, the “Antiviral activity by time of addition” value in test [8] is on record as “lost most of their antiviral activity”. Moreover, in test [9], the “Lung histopathology (inflammatory cell infiltration, alveolar septal thickening) compared with vehicle-treated mice” value is “reduced inflammatory cell infiltration and alveolar septal thickening”; the “Expression levels of inflammatory cytokines (IL-1β, IL-6, TNFα) and chemokines (CCL3, CSF3, CXCL10) in the lung tissues” value is given as “reduced”. The IC50 in [10] is 3.34 ± 0.52 nM.

For the molecule `O=C(NCc1ccccc1)C(=O)[C@H](C[C@@H]1CCCNC1=O)NC(=O)[C@H](CC1CCCCC1)NC(=O)c1cc2ccccc2o1` [14b, N-((S)-1-(((S)-4-(benzylamino)-3,4-dioxo-1-((S)-2-oxopiperidin-3-yl)butan-2-yl)amino)-3-cyclohexyl-1-oxopropan-2-yl)benzofuran-2-carboxamide], the EC50 in [1] is 1310 ± 320 nM. For the same molecule, in test [2], the “Inhibitory activity against furin (in words)” value is “did not exhibit inhibitory activity” and the inhibition is -4 ± 1%. The inhibition in test [3] was 11 ± 2%. In [4], the inhibition worked out at 4 ± 4%. Moreover, the half-inhibitory concentration (IC50) in test [5] (read-out: IC50, Human CTSX) stood at 1310 nM. Moreover, in test [6], the “Inhibitory activity against papain-like protease (PL^pro) (in words)” value was “no inhibitory activity” and the inhibition at 20 µM is 8 ± 1%. The “Body weight of infected mice” value in [11] (HCoV-OC43 100 TCID50, 5 mg/kg intraperitoneal injection) is on record as “either mildly decreased or rapidly recovered”. Also, the Final survival rate in test [11] (HCoV-OC43 100 TCID50, 5 mg/kg intraperitoneal injection 24 h after challenge) turned out to be 60%. Moreover, the “Effect on SARS-CoV-2-S-mediated cell-cell fusion” value in [7] is on record as “no effect”. Moreover, in test [8], the “Antiviral activity by time of addition” value was “lost most of their antiviral activity”. In addition, in test [9], the “Lung histopathology (inflammatory cell infiltration, alveolar septal thickening) compared with vehicle-treated mice” value was “reduced inflammatory cell infiltration and alveolar septal thickening”; the “Expression levels of inflammatory cytokines (IL-1β, IL-6, TNFα) and chemokines (CCL3, CSF3, CXCL10) in the lung tissues” value is given as “reduced”. In addition, in test [10], the IC50 came to 6.88 ± 0.81 nM.

As usually defined, the EC50 is the concentration giving half of the maximal effect. By inhibition is commonly meant the drop in the measured response relative to a control, in per cent. What is called IC50 is the concentration needed to halve the response being measured.
